Laboratory results published in ChEMBL document CHEMBL1153328, “5-Aminomethylbenzimidazoles as potent ITK antagonists” (Bioorg Med Chem Lett, 2009).
In brackets after ≈: the same amount, converted by molar mass.

Key:
T-cell = assay: Inhibition of anti-CD3 and anti-CD28 monoclonal antibody-stimulated IL2 secretion in human CD4+ T cells; assay type: functional, cell-based
Insulin receptor = Insulin receptor (Homo sapiens, UniProt P06213); assay: Inhibition of IRK
[1] = target: T1, Tyrosine-protein kinase ITK/TSK (Homo sapiens, UniProt Q08881); assay: Inhibition of ITK in presence of 1 mM ATP
T1 sequence (Q08881 whole entry): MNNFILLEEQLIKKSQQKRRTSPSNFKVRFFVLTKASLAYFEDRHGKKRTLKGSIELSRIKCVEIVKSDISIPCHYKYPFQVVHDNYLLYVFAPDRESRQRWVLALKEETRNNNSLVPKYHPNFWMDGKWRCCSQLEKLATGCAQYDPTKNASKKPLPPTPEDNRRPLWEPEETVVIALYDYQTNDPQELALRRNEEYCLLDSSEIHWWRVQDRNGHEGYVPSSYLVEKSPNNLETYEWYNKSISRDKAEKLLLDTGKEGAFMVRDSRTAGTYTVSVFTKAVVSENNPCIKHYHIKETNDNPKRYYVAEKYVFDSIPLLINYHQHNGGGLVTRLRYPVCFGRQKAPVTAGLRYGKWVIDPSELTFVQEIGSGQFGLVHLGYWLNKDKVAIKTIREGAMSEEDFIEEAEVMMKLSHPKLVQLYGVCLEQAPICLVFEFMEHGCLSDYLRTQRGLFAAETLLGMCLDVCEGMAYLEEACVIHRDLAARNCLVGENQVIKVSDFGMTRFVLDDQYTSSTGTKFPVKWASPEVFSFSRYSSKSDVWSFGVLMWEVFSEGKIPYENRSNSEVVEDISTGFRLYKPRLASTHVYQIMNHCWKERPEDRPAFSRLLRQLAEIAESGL

[2] = target: T1, Tyrosine-protein kinase ITK/TSK; assay: Binding affinity to ITK by DELFIA-based molecular assay
[3] = target: T1, Tyrosine-protein kinase ITK/TSK; assay: Antagonist activity at human ITK expressed in BTK deficient DT40 cells assessed as inhibition of B cell receptor-stimulated calcium influx; assay type: functional, cell-based
Blood = assay: Inhibition of staphylococcal entertoxin B-stimulated IL2 secretion in human whole blood; assay type: functional, tissue-based
[4] = Solubility at pH 7; assay type: physicochemical; conditions: buffer
[5] = Protein binding in plasma by dialysis method; assay type: ADME, cell-free; conditions: read-out: PPB (converted)
[6] = Oral bioavailability in Sprague-Dawley rat at 10 mg/kg; assay type: ADME, organism-based; conditions: in vivo
[7] = AUC (0 to infinity) in Sprague-Dawley rat at 1 mg/kg, iv; assay type: ADME, organism-based; parameters: time infinity, dose 1 mg/kg, route intravenous; conditions: plasma
[8] = Tmax in Sprague-Dawley rat at 10 mg/kg, po; assay type: ADME, organism-based; parameters: dose 10 mg/kg, route oral; conditions: in vivo
[9] = AUC (0 to infinity) in Sprague-Dawley rat at 10 mg/kg, po; assay type: ADME, organism-based; parameters: time infinity, dose 10 mg/kg, route oral; conditions: plasma
[10] = Terminal plasma concentration in BALB/c mouse at 1.5 mg/kg, po after 8 hrs; assay type: ADME, organism-based; parameters: dose 1.5 mg/kg, route oral; conditions: read-out: Cp(T)
Mus musculus [11] = assay: Inhibition of anti-CD3-stimulated IL2 production in po dosed BALB/c mouse administered 5 hrs before anti-CD3 challenge measured after 3 hrs; assay type: functional, organism-based
[12] = Plasma clearance in Sprague-Dawley rat at 1 mg/kg, iv; assay type: ADME, organism-based; parameters: dose 1 mg/kg, route intravenous
[13] = Volume of distribution at steady state in Sprague-Dawley rat at 1 mg/kg, iv; assay type: ADME, organism-based; parameters: dose 1 mg/kg, route intravenous; conditions: in vivo, read-out: Vdss
Mus musculus [14] = assay: Inhibition of anti-CD3-stimulated IL4 production in po dosed BALB/c mouse administered 5 hrs before anti-CD3 challenge measured after 3 hrs; assay type: functional, organism-based
[15] = Terminal plasma concentration in BALB/c mouse at 15 mg/kg, po after 8 hrs; assay type: ADME, organism-based; parameters: dose 15 mg/kg, route oral; conditions: read-out: Cp(T)
[16] = Terminal half life in Sprague-Dawley rat at 1 mg/kg, iv; assay type: ADME, organism-based; parameters: dose 1 mg/kg, route intravenous; conditions: in vivo, read-out: beta t1/2 (converted)
[17] = Terminal plasma concentration in BALB/c mouse at 5 mg/kg, po after 8 hrs; assay type: ADME, organism-based; parameters: dose 5 mg/kg, route oral; conditions: read-out: Cp(T)
[18] = Cmax in Sprague-Dawley rat at 10 mg/kg, po; assay type: ADME, organism-based; parameters: dose 10 mg/kg, route oral; conditions: in vivo

Sequence of Insulin receptor (P06213 28-758 limits assumed): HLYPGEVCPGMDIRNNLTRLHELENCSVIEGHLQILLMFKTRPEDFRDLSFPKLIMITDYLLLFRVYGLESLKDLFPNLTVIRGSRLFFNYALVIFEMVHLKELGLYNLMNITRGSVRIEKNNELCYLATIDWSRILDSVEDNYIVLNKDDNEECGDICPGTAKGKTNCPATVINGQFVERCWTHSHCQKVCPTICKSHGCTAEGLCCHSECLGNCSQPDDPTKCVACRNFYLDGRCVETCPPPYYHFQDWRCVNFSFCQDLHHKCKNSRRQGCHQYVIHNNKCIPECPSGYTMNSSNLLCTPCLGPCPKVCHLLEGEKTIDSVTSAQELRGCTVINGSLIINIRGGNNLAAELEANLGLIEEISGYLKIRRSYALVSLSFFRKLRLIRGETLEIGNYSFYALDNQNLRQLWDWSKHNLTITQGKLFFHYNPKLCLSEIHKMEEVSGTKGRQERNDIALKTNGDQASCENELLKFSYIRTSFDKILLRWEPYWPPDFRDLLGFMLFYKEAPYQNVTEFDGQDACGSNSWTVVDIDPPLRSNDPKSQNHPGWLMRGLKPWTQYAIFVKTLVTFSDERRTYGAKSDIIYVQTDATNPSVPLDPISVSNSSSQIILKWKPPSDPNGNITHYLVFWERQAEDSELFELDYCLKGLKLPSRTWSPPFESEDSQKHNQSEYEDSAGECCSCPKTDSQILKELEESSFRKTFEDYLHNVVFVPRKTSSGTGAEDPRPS
Sequence of Insulin receptor (P06213 763-1382 limits assumed): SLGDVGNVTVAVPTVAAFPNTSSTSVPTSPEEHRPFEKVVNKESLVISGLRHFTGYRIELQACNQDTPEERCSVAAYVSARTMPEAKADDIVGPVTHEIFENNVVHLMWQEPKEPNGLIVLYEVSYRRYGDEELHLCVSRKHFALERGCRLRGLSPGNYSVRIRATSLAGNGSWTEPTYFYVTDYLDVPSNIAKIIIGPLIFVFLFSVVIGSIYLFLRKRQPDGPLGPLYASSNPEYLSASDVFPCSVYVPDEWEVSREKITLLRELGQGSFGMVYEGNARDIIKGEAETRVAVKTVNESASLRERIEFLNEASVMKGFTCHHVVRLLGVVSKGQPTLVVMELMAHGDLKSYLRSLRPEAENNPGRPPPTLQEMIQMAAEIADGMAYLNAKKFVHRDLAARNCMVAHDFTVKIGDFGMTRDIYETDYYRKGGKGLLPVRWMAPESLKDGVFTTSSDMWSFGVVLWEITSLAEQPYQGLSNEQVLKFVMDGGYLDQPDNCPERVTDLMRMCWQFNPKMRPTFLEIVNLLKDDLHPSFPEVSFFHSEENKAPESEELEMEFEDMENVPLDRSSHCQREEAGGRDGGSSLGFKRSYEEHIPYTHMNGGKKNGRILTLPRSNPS

Compound	IC50 (T-cell) [nM]	IC50 (Insulin receptor) [nM]	IC50 [1] [nM]	IC50 [2] [nM]	IC50 [3] [nM]	other results
Cc1ncc(-c2ccc(C(=O)/N=c3\[nH]c4cc(CNc5ccccc5)ccc4n3CC(C)(C)O)s2)o1	460					
CC(C)(O)Cn1/c(=N/C(=O)c2ccc(-c3cn[nH]c3)s2)[nH]c2cc(CN3CCOCC3)ccc21	230	320	220	2	13	
Cc1ncc(-c2ccc(C(=O)Nc3nc4cc(CNC5CCCCC5)ccc4n3CC(C)(C)O)s2)o1	180	700	940	8	210	
CN(Cc1ccc2c(c1)[nH]/c(=N\C(=O)c1ccc(-c3cn[nH]c3)s1)n2CC(C)(C)O)c1ccccc1		5500				
C[C@@H](N(C)Cc1ccc2c(c1)nc(NC(=O)c1ccc(-c3cn[nH]c3)s1)n2CC(C)(C)O)C(C)(C)C	64	230	20	1	2	
C[C@H](N(C)Cc1ccc2c(c1)[nH]/c(=N\C(=O)c1ccc(-c3cn[nH]c3)s1)n2CC(C)(C)O)C(C)(C)C	18	400	8	1	3	IC50 (Blood): 690 nM
CC(C)(O)Cn1/c(=N/C(=O)c2ccc(-c3cn[nH]c3)s2)[nH]c2cc(CN3CCCCC3)ccc21	120	550	250	3	11	
CC(C)(O)Cn1/c(=N/C(=O)c2ccc(-c3cn[nH]c3)s2)[nH]c2cc(CN3CCCCC3CO)ccc21 (centres undefined)		1100	660	3	58	
CC(C)(O)Cn1c(NC(=O)c2ccc(-c3cn[nH]c3)s2)nc2cc(CNc3ccccc3)ccc21	150	1700	75	2	21	
CC(C)(O)Cn1/c(=N/C(=O)c2ccc(-c3cn[nH]c3)s2)[nH]c2cc(CNCc3ccccc3)ccc21	37	480				
CC(C)(O)Cn1c(NC(=O)c2ccc(-c3cn[nH]c3)s2)nc2cc(CN)ccc21		1200	900	4	> 5000	
CN(Cc1cccnc1)Cc1ccc2c(c1)[nH]/c(=N\C(=O)c1ccc(-c3cn[nH]c3)s1)n2CC(C)(C)O	91	310				
Cc1ncc(-c2ccc(C(=O)Nc3nc4cc(N(C)C(=O)c5ccccc5)ccc4n3CC(C)(C)O)s2)o1	440	940	200	3	110	solubility [4]: 2 µg/mL (≈ 3.78 µM); fraction unbound [5]: 0.013; IC50 (Blood): 10000 nM
CC(C)(O)Cn1c(NC(=O)c2ccc(-c3cn[nH]c3)s2)nc2cc(CNC3CCCCC3)ccc21	93	400	99	1	20	
CN(Cc1ccc2c(c1)nc(NC(=O)c1ccc(-c3cn[nH]c3)s1)n2CC(C)(C)O)C1CCCCC1	59	480	160	2	13	
CCC(C)NCc1ccc2c(c1)nc(NC(=O)c1ccc(-c3cn[nH]c3)s1)n2CC(C)(C)O (centres undefined)	23	600	390	2	25	
CN(C)Cc1ccc2c(c1)[nH]/c(=N\C(=O)c1ccc(-c3cn[nH]c3)s1)n2CC(C)(C)O	130					
C[C@@H](NCc1ccc2c(c1)nc(NC(=O)c1ccc(-c3cn[nH]c3)s1)n2CC(C)(C)O)C(C)(C)C	50	93	20	1	3	
C[C@H](NCc1ccc2c(c1)[nH]/c(=N\C(=O)c1ccc(-c3cn[nH]c3)s1)n2CC(C)(C)O)C(C)(C)C	20	160	13	1	4	bioavailability [6]: 21%; AUC(0-inf) [7]: 314 ng·h/mL; Tmax [8]: 1.2 h; AUC(0-inf) [9]: 659 ng·h/mL; concentration at 8 h [10]: 100 nM; Activity (Mus musculus [11]): Dose-dependent effect; clearance [12]: 53.1 mL/min/kg; IC50 (Blood): 240 nM; Vd [13]: 11.6 L/kg; Activity (Mus musculus [14]): Dose-dependent effect; concentration at 8 h [15]: 1300 nM; half-life [16]: 2.5 h; concentration at 8 h [17]: 400 nM; Cmax [18]: 92 ng/mL
Cc1ncc(-c2ccc(C(=O)/N=c3\[nH]c4cc(CN(C)C5CCCCC5)ccc4n3CC(C)(C)O)s2)o1	230	350				
CNCc1ccc2c(c1)[nH]/c(=N\C(=O)c1ccc(-c3cn[nH]c3)s1)n2CC(C)(C)O		500				
CC(C)(O)Cn1/c(=N/C(=O)c2ccc(-c3cn[nH]c3)s2)[nH]c2cc(CN3CCC(O)C3)ccc21 (centres undefined)		420	310	2	130	
CC1COCC(C)N1Cc1ccc2c(c1)[nH]/c(=N\C(=O)c1ccc(-c3cn[nH]c3)s1)n2CC(C)(C)O (centres undefined)	46	320	98	1	3	
CC(C)CNCc1ccc2c(c1)nc(NC(=O)c1ccc(-c3cn[nH]c3)s1)n2CC(C)(C)O	86	360				
CN(C)CCN(C)Cc1ccc2c(c1)[nH]/c(=N\C(=O)c1ccc(-c3cn[nH]c3)s1)n2CC(C)(C)O	150	390				
